According to US20240228446A1, “PREPARATION METHOD FOR BICYCLIC COMPOUND AND APPLICATION AS ANTIFUNGAL AGENT” (priority 2021, published 2024):
Values after ≈ are worked out from the molar mass of the structure shown. Where two headings read alike, the source gives them in different places.

Assays:
[1] = tested on: Candida albicans ATCC MYA-2876; experiment: Minimal inhibitory concentration (MIC) test on fungal growth (CLSI M27, yeasts); type: cell-based; conditions: for MIC: Candida albicans, read-out: MIC Candida albicans ATCC MYA-2876
Outline: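 Broth microdilution followed CLSI M27 in RPMI1640 buffered with 0.165 M MOPS, pH 7.0, with a final inoculum of 500–2500 CFU/mL. Eleven 2-fold compound concentrations were tested, and plates were incubated 24 h at 35 °C. MIC was the lowest concentration giving 50% growth inhibition, read visually with optional OD530 assistance.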

[2] = tested on: Aspergillus fumigatus ATCC MYA-4609; experiment: Minimal inhibitory concentration (MIC) test on fungal growth (CLSI M38, Aspergillus); type: cell-based; conditions: for MIC: Aspergillus fumigatus, read-out: MIC Aspergillus fumigatus ATCC MYA-4609
Method: • RPMI1640 medium: Brand: Gibco, article number: 31800-014 • Sabouraud dextrose agar (SDA): Brand: Hope Bio, article number: HB0253-81 • Voriconazole: Brand: Adamas, article number: 22105A • Amphotericin B: Brand: AbCam, article number: ab141199
MIC test was conducted in accordance with the guidelines and requirements of CLSI M27 (for yeasts) and M38 (for Aspergillus).
Strain preparation: The strains were inoculated 1 day in advance by streaking on SDA plates with glycerol strains stored at −80° C. The strains were cultured at 35° C. and 40 to 60% humidity for 18 to 24 hours. Streak inoculation of Aspergillus fumigatus and Cryptococcus neoformans was required to be done 3 days and 2 days in advance, respectively.
Preparation of culture medium and compounds: The liquid culture medium RPMI was prepared with pure water, and 0.165 mol/L MOPS was added to adjust the pH to 7.0. The mixture was filtered with a 0.22 μm-membrane filter, sterilized, and stored at 4° C. (no more than 3 months). 0.85% physiological saline was sterilized at 121° C. for 30 min and then stored at room temperature (no more than 1 week). The compounds were dissolved in DMSO to 12.8 mg/mL and stored at −20° C.
For Aspergillus, 5 mL of physiological saline was added to cover the mycelium, and the spores were gently scraped off with a spreader. The spore suspension was then transferred to a sterile test tube. An appropriate amount of spore suspension was taken and counted under a microscope using a hemocytometer. Spore concentration was adjusted to approximately 0.4 to 5×10^4 spores/mL using RPMI1640 medium.
The compound was diluted to the highest 800 μg/mL (or 400 μg/mL) with DMSO, and a 10-step 2-fold gradient dilution was performed, resulting in 11 concentrations. 2 μL of the gradient-diluted compound was transferred to the corresponding wells of a 96-well plate, and then 198 μL of the inoculum was transferred to the test plate. The plate was incubated at 35° C. for 24 hours (Aspergillus fumigatus and Cryptococcus neoformans were incubated for 48 and 72 hours, respectively).
After the incubation, the growth of the fungi was visually observed. The lowest concentration of the compound that inhibited the growth of yeast by 50% (inhibited Aspergillus by 100%) was defined as the minimum inhibitory concentration (MIC, μg/mL). A magnifying glass or reading at OD530 nm could be used to assist in determining the MIC. Photos were taken of the test plates for record keeping.

[3] = lowest concentration inhibiting growth of yeast by 50%, 35° C., 24 hours, RPMI1640
[4] = lowest concentration inhibiting Aspergillus by 100%, 35° C., 48 hours, RPMI1640

MIC [1, 3] [µg/mL]	MIC [2, 4] [µg/mL]	MIC Candida albicans ATCC MYA-2876 [1, 3] [µg/mL]	MIC Aspergillus fumigatus ATCC MYA-4609 [2, 4] [µg/mL]	SMILES	also measured
≤ 0.0039	1 (≈ 2.07 µM)			OC(Cn1cncn1)(c1ccc(F)cc1F)C(F)(F)C12CC(c3ccc(OC(F)F)cc3)(C1)C2 (stereo not drawn) [Compound 81]	
		≤0.0039	1 (≈ 1.83 µM)	O[C@H](COc1ccc(C23CC(C(F)(F)[C@](O)(Cn4cncn4)c4ccc(F)cc4F)(C2)C3)cn1)C(F)(F)F [Compound 98A]	
		≤0.0039	2 (≈ 3.66 µM)	O[C@H](COc1ccc(C23CC(C(F)(F)[C@@](O)(Cn4cncn4)c4ccc(F)cc4F)(C2)C3)cn1)C(F)(F)F [Compound 98B]	
		≤0.0039	2 (≈ 3.66 µM)	OC(COc1ccc(C23CC(C(F)(F)C(O)(Cn4cncn4)c4ccc(F)cc4F)(C2)C3)cn1)C(F)(F)F (stereo not drawn) [Compound 98]	
		0.0078 (≈ 0.0176 µM)	4 (≈ 9.02 µM)	N#Cc1ccc(C23CC(C(F)(F)C(O)(Cn4cncn4)c4ccc(F)cc4F)(C2)C3)cn1 (stereo not drawn) [Compound 128]	
0.0078 (≈ 0.0147 µM)	4 (≈ 7.54 µM)			O=C(COc1ccc(C23CC(C(F)(F)C(O)(Cn4cncn4)c4ccc(F)cc4F)(C2)C3)cc1)NC1CC1 (stereo not drawn) [Compound 129]	
0.0078 (≈ 0.0148 µM)	8 (≈ 15.2 µM)			CS(=O)(=O)COc1ccc(C23CC(C(F)(F)C(O)(Cn4cnnn4)c4ccc(F)cc4F)(C2)C3)cc1 (stereo not drawn) [Compound 131]	

The next lines start with the compound.

SMILES	MIC [1, 3] [µg/mL]	MIC [2, 4] [µg/mL]	MIC Candida albicans ATCC MYA-2876 [1, 3] [µg/mL]	MIC Aspergillus fumigatus ATCC MYA-4609 [2, 4] [µg/mL]	also measured
OC(Cn1cnnn1)(c1ccc(F)cc1F)C(F)(F)C12CC(c3ccc(OCCN4CCOCC4)cc3)(C1)C2 (stereo not drawn) [Compound 65]					MIC ([1]; 24 h): 0.0078 µg/mL (≈ 0.0142 µM); MIC ([2]; 48 h): 32 µg/mL (≈ 58.4 µM)
N#CCOc1ccc(C23CC(C(F)(F)C(O)(Cn4cnnn4)c4ccc(F)cc4F)(C2)C3)cc1 (stereo not drawn) [Compound 69]					MIC ([1]; 24 h): 0.016 µg/mL (≈ 0.0338 µM); MIC ([2]; 48 h): 4 µg/mL (≈ 8.45 µM)
OC(Cn1cnnn1)(c1ccc(F)cc1F)C(F)(F)C12CC(c3ccc(OC[C@H]4CCCO4)cc3)(C1)C2 (stereo partly drawn) [Compound 76]					MIC ([1]; 24 h): 0.016 µg/mL (≈ 0.0309 µM); MIC ([2]; 48 h): 8 µg/mL (≈ 15.4 µM)
O[C@H](COc1ccc(C23CC(C[C@](O)(Cn4cncn4)c4ccc(F)cc4F)(C2)C3)cc1)C(F)(F)F [Compound 90A]	≤ 0.0039	0.5 (≈ 0.981 µM)			
O[C@H](COc1ccc(C23CC(CC(O)(Cn4cncn4)c4ccc(F)cc4F)(C2)C3)cc1)C(F)(F)F (stereo partly drawn) [Compound 90]	≤ 0.0039	0.5 (≈ 0.981 µM)			
O[C@@H](COc1ccc(C23CC(C(F)(F)[C@](O)(Cn4cnnn4)c4ccc(F)cc4F)(C2)C3)cn1)C(F)(F)F [Compound 97A]			≤0.0039	4 (≈ 7.31 µM)	
O[C@H](COc1ccc(C23CC(C(F)(F)[C@@](O)(Cn4cnnn4)c4ccc(F)cc4F)(C2)C3)cn1)C(F)(F)F [Compound 97B]			0.0078 (≈ 0.0142 µM)	8 (≈ 14.6 µM)	
O[C@@](Cn1cnnn1)(c1ccc(F)cc1F)C(F)(F)C12CC(c3ccc(OCC4(F)COC4)cc3)(C1)C2 [Compound 121A]			≤0.0039	4 (≈ 7.66 µM)	
OC(Cn1cnnn1)(c1ccc(F)cc1F)C(F)(F)C12CC(c3ccc(OCC4(F)COC4)cc3)(C1)C2 (stereo not drawn) [Compound 121]	0.0078 (≈ 0.0149 µM)	8 (≈ 15.3 µM)			
O[C@H](COc1ccc(C23CC(C(F)(F)[C@](O)(Cn4cnnn4)c4ccc(F)cc4F)(C2)C3)cc1F)C(F)(F)F [Compound 134A]	≤ 0.0039	2 (≈ 3.54 µM)			
O[C@H](COc1ccc(C23CC(C(F)(F)C(O)(Cn4cnnn4)c4ccc(F)cc4F)(C2)C3)cc1F)C(F)(F)F (stereo partly drawn) [Compound 134]	0.0078 (≈ 0.0138 µM)	4 (≈ 7.09 µM)			
CC(Oc1ccc(C23CC(C(F)(F)C(O)(Cn4cnnn4)c4ccc(F)cc4F)(C2)C3)cc1)C(O)C(F)(F)F (stereo not drawn) [Compound 135]	0.016 (≈ 0.0285 µM)	8 (≈ 14.3 µM)			
COC(COc1ccc(C23CC(C(F)(F)C(O)(Cn4cnnn4)c4ccc(F)cc4F)(C2)C3)cc1)C(F)(F)F (stereo not drawn) [Compound 136]	0.016 (≈ 0.0285 µM)	4 (≈ 7.14 µM)			
OC(COc1ccc(C23CC(C(F)(F)C(O)(Cn4cnnn4)c4ccc(F)cc4F)(C2)C3)cc1)C(F)F (stereo not drawn) [Compound 137]	≤ 0.0039	8 (≈ 15.1 µM)			
